Earlier results, collected in US20110046156A1, “TREATMENT OF HEARING AND BALANCE IMPAIRMENTS WITH REDOX-ACTIVE THERAPEUTICS” (priority 2009, published 2011).

[H]/N=C(/N)N[C@H]1[C@H](O)[C@@H](O)[C@H](O[C@@H]2O[C@@H](C)[C@](O)(C=O)[C@H]2O[C@@H]2O[C@@H](CO)[C@H](O)[C@@H](O)[C@@H]2NC)[C@@H](N/C(N)=N\[H])[C@@H]1O [streptomycin]
incidence of vestibular impairment (1 gram per day): 25% | patients displaying some vestibular impairment (2 grams daily for 60 to 120 days): ~75%
